Data set [1] deals with influenza virus A/Jena/8178/09. The data set is described as follows: organism not typed. As to conditions: MDCK, read-out: 50% Inhibitory concentration against Influenza A viruses Jena/8178, Mean.
The test system of the next data set is viral neuraminidase. As to conditions: 37 °C for 24 h.
Data set [2] deals with influenza virus A/Hong Kong/68. Briefly: organism not typed. The conditions noted are these: MDCK, read-out: 50% Inhibitory concentration against Influenza A viruses HK/68, Mean.
For data set [3], the system named is influenza virus A/Hong Kong/68. The data set is described as follows: Time-of-addition plaque-reduction assay in MDCK cells. The conditions noted are these: pelargonium extract 50 μg/mL, zanamivir 1 μM.
For data set [4], the system named is influenza virus A/Jena/8178/09. The conditions noted are these: for CPE inhibition at non-cytotoxic concentrations: 0.0316–100 μM; for CPE inhibition at non-cytotoxic concentrations / Effect on influenza virus A/Jena/8178/09-induced CPE (in words): MDCK cells; for Effect on influenza virus A/Jena/8178/09-induced CPE (in words): non-cytotoxic concentrations.
Data set [5] deals with influenza virus A/Jena/8178/09. Briefly: Hemagglutination inhibition assay with human erythrocytes. Also noted: species or system influenza A virus (H1N1pdm09). As to conditions: 4 hemagglutination units, maximum test concentration 1 μM. As to the method:
(§1) The negative control (no hemagglutination) consists only 50 μL phosphate-buffered saline (n = 8). […] We added 50 μL of a 1% human erythrocytes solution to each well of the microplate. After a two-hour incubation at 4 °C, we recorded the lowest compound concentration that induces hemagglutination or inhibits virus-mediated hemagglutination (minimum hemagglutination or hemagglutination inhibitory concentration, respectively).

The subject of data set [6] is influenza virus A/Hong Kong/68. As to conditions: for CPE inhibition at non-cytotoxic concentrations: 0.0316–100 μM; for Effect on influenza virus A/Hong Kong/68-induced CPE (in words): non-cytotoxic concentrations.
The next data set has as its system human erythrocytes. The data set is described as follows: Hemagglutination by test item in the absence of virus. The conditions noted are these: maximum test concentration 1 μM. As to the method:
as §1

Data set [7] concerns rhinovirus B14. Briefly: CPE inhibitory assay with rhinovirus B14 in HeLa Ohio cells. The conditions noted are these: for CPE inhibition at non-cytotoxic concentrations: 0.0316–100 μM. It is filed as cell-based.
The subject of data set [8] is rhinovirus B14. The conditions noted are these: 3-day pretreatment of primary human tracheal epithelial cells; cited from earlier work.
A further data set has as its system rhinovirus A2. Briefly: CPE inhibitory assay with rhinovirus A2 in HeLa Ohio cells. As to conditions: for CPE inhibition at non-cytotoxic concentrations: 0.0316–100 μM, HeLa Ohio cells.
For the next data set, the system named is HeLa Ohio cells. Briefly: Cytotoxicity determination in HeLa Ohio cells (crystal violet, 72 h). It is filed as cell-based, human. As to conditions: for 50% Cytotoxic concentration in HeLa cells, Mean: 72 h. As to the method: HeLa Ohio and MDCK cells were seeded at 1.6 × 10^4 and 2.3 × 10^4 cells/well in 100 μL growth medium in 96 well flat-bottomed microtiter plates, respectively. The cytotoxicity of the test compounds and extracts was determined on two-day-old confluent cell monolayers grown in the internal 60 wells of a microtiter plate (5% carbon dioxide, 37 °C). After removal of the growth medium, 50 μL of test medium and eight half-log dilutions of the reference compounds pleconaril or zanamivir, or eight half-log dilutions of test items in test medium (each concentration in duplicates) were added. The concentration range of reference compounds applied to cytotoxicity assays was 0.0316–100 μM. […] Six cell control wells were incubated with 100 μL test medium. After 72 h of incubation at 37 °C in 5% carbon dioxide atmosphere, the Dynex Immuno Assay System (Guernsey, UK), developed for automated ELISA techniques, was applied to gently wash, stain, measure, and analyze the viability of the cell monolayers based on optical density determination. After aspiration of supernatant, cell monolayers were washed three times with 300 μL physiological phosphate-buffered saline to remove death cells. The remaining cells were fixed and stained with 50 μL of 0.07% crystal violet (w/v), 20% ethanol, 3% formalin solution in water for 10 min. Six washings with 300 μL of water followed to remove excess stain. Before measuring the optical density, we solubilized the crystal violet by adding 100 μL lysis buffer (0.898 g of sodium citrate and 1.25 mL of 1 N HCl in 98.05 mL 47.5% ethanol) for 20 min. The absorbances were red at two wavelengths (550 and 690 nm). Cell viability in a well was defined as the percentage of the mean value of optical density resulting from the six cell controls, which was set 100% cell viability. The inhibitor concentration that reduces the mean value of optical density determined for cell controls by half is called 50% cytotoxic concentration (CC50). A minimum of three independent experiments were performed.

For data set [9], the system named is rhinovirus (stored under rhinovirus A2; the sentence does not specify which rhinovirus). The data set is described as follows: in vitro. The conditions noted are these: human.
For data set [10] the following is noted: following the application of 600 mg; cited from earlier work.

Molecules are shown by their SMILES. pIC50: −log10 of the molar value. Where a name gives a salt, the structure may show the parent alone. Read-outs that look alike come from different tables or passages of the source. Marks after values point to notes of the source that are not given here.

Protocol for viral neuraminidase: Thereafter, we incubated the assays at 37 °C for further 24 h allowing viral neuraminidase activation [43]. The activated viral neuraminidase abrogates the virus-mediated hemagglutination in absence of inhibitors (hemagglutination control) or in the presence of ineffective inhibitor concentrations. Neuraminidase inhibitors prevent this abrogation of virus-mediated hemagglutination.

As to `CC(=O)N[C@H]1[C@H]([C@H](O)[C@H](O)CO)OC(C(=O)O)=C[C@@H]1N=C(N)N` [Zanamivir, zanamivir], in the data set on MDCK cells (MDCK cells, 72 h), the “50% Cytotoxic concentration in MDCK cells, Mean” value is > 100^a μM. Also, the “Cytotoxicity in MDCK cells (in words)” value with MDCK cells (tested concentrations) is recorded as “well tolerated”. Moreover, the pIC50 in data set [1] was 8.15. Also, in the data set on viral neuraminidase, the “Minimal neuraminidase inhibitory concentration” value stood at 0.03 µM. In [2], the pIC50 is 8.10. Besides, in [3] (4 °C for 2 h), the “Plaque production, treatment during adsorption” value was “did not prevent”. For the same molecule, in [3] (1 h at 37 °C before infection), the “Plaque production, pre-treatment of cells” value is listed as “did not prevent” and the “Plaque production, pre-treatment of virus” value was “did not prevent”. Also, the “Plaque production, treatment after adsorption” value in data set [3] (in agar overlay for 72 h) is “completely blocked”. In addition, the “Plaque production, treatment during and after adsorption” value in data set [3] was “completely blocked”. Besides, the “Selectivity index against Influenza A viruses Jena/8178” value in [4] is recorded as > 14,285. The “Inhibition of virus-mediated hemagglutination (in words)” value in data set [5] was “neither mediated nor inhibited”. Further, the “Selectivity index against Influenza A viruses HK/68” value in data set [6] is listed as > 12,500. The “Induction of hemagglutination (in words)” value in the data set with human erythrocytes is “neither mediated nor inhibited”.

Consider `Nc1c(Br)cc(Br)cc1CN[C@H]1CC[C@H](O)CC1` [Ambroxol, ambroxol], for which the “CPE inhibition at non-cytotoxic concentrations” value is listed as less than 50% with rhinovirus B14 [7], “less than 50%” in data set [4], less than 50% with rhinovirus A2 and “less than 50%” in data set [6] (MDCK cells). Moreover, in the data set on MDCK cells (MDCK cells, 72 h), the “50% Cytotoxic concentration in MDCK cells, Mean” value is reported as > 100^a μM. In addition, the “Concentration reducing the titer of rhinovirus B14 in the supernatant” value in the data set on rhinovirus B14 [8] is on record as “at least 0.1 μM”. Moreover, the “Effect on influenza virus A/Jena/8178/09-induced CPE (in words)” value in data set [4] was “did not show any effect”. In addition, the “50% Cytotoxic concentration in HeLa cells, Mean” value in the data set with HeLa Ohio cells (HeLa Ohio cells) amounted to 61.24 µM; in the data set on HeLa Ohio cells (HeLa Ohio cells, listed as ambroxol), 51.85 µM. Also, the “Effect on influenza virus A/Hong Kong/68-induced CPE (in words)” value in data set [6] (MDCK cells) is “did not show any effect”.

Regarding `Cc1cc(CCCOc2c(C)cc(-c3noc(C(F)(F)F)n3)cc2C)on1` [Pleconaril, pleconaril], in the data set on rhinovirus B14 [7] (n.a. = not active up to the maximum non-cytotoxic concentration, read-out: 50% Inhibitory concentration against Rhinoviruses B14, Mean), the pIC50 is 7.60. For the same molecule, the pIC50 with rhinovirus A2 (HeLa, read-out: 50% Inhibitory concentration against Rhinoviruses A2, Mean) is 8.10. Besides, in the data set with HeLa Ohio cells (HeLa Ohio cells), the “Concentration above which a marked dose-dependent cytotoxic effect was seen” value is reported as “higher than 10 μM” and the “50% Cytotoxic concentration in HeLa cells, Mean” value is 28.75 µM. Besides, the selectivity ratio in data set [9] was greater than 3500.

`CC(=O)N[C@@H](CS)C(=O)O` [N-acetylcysteine]: in the data set with MDCK cells, the “50% Cytotoxic concentration in MDCK cells, Mean” value is listed as > 100^a μM. Also, the Maximal plasma concentration result in [10] was “about 16 μM”. Further, in data set [4], the “CPE inhibition at non-cytotoxic concentrations” value was “less than 50%” and the “Effect on influenza virus A/Jena/8178/09-induced CPE (in words)” value is “did not show any effect”. Moreover, the “50% Cytotoxic concentration in HeLa cells, Mean” value with HeLa Ohio cells (HeLa Ohio cells) was > 100^a μM. Also, the “Cytotoxicity in HeLa Ohio cells (in words)” value in the data set with HeLa Ohio cells (tested concentration range) is “non-cytotoxic”. Also, in data set [6] (MDCK cells), the “CPE inhibition at non-cytotoxic concentrations” value was “less than 50%” and the “Effect on influenza virus A/Hong Kong/68-induced CPE (in words)” value is given as “did not show any effect”.

For `CN(Cc1cc(Br)cc(Br)c1N)C1CCCCC1` [Bromhexine, bromhexine hydrochloride], the “CPE inhibition at non-cytotoxic concentrations” value was less than 50% with rhinovirus B14 [7], “less than 50%” in data set [4], less than 50% in the data set with rhinovirus A2 and “less than 50%” in [6] (MDCK cells). For the same molecule, the “Cytotoxic concentration in MDCK cells” value in the data set on MDCK cells (MDCK cells) came out at 100 µM. The “50% Cytotoxic concentration in MDCK cells, Mean” value in the data set on MDCK cells (MDCK cells, 72 h) stood at 51.29 µM. Further, the “50% Cytotoxic concentration in HeLa cells, Mean” value in the data set on HeLa Ohio cells (HeLa Ohio cells) was 51.85 µM; with HeLa Ohio cells (HeLa Ohio cells, listed as bromhexine), 61.24 µM. In addition, the “Reduction of influenza virus A/Hong Kong/68-induced CPE” value in data set [6] (at 31.6 μM, MDCK cells) amounted to 30%.

The values are drawn from article PMC7757078, “Comparative in vitro analysis of inhibition of rhinovirus and influenza virus replication by mucoactive secretolytic agents and plant extracts” (BMC Complementary Medicine and Therapies, 2020).
